# Experiment: Human HepG2 cell viability assay in 384 well format
# Type: toxicity, cell-based
# Set-up: dose 125 nL, time 70.5 hour; cytotoxicity at 70.5 h: concentration not given beside the values
# Conditions: HepG2 cells, read-out: Inhibition
row,Structure (SMILES),cytotoxicity at 70.5 h [%]
1,O=C(CN1CCc2ccccc2C1)NCc1ccco1,3.48
2,CC1(NC(=O)Cc2csc(-c3cccc(Cl)c3)n2)CCS(=O)(=O)C1 (centres undefined),-63.1
3,c1ccc(CCN2CCc3c(ncn3C3CC3)C2)nc1,-3.33
4,CN(C)S(=O)(=O)CCCN1CCc2c(ncn2C2CC2)C1,9.65
5,NC(=O)NC(=O)C(c1ccccc1)N1CCN(Cc2ccc(Cl)s2)CC1 (centres undefined),-3.49
6,O=C(NC1CC1)C(c1ccccc1)N1CCN(Cc2ccc(Cl)s2)CC1 (centres undefined),-3.83
7,O=C1CCC(=O)N1Cc1ccc(C(=O)N2CCCC2c2cccs2)cc1 (centres undefined),-11.1
8,CC(C(=O)Nc1ccccc1F)S(C)(=O)=O (centres undefined),2.07
9,CC(C)CCNC(=O)NC(C)c1nncn1C (centres undefined),22
10,NC(=O)C1CCN(C(=O)NC2CCc3cc(F)ccc32)CC1 (centres undefined),2.63
11,O=C(NCC1CCC1)c1ccc(-n2ccnc2)nn1,5.15
12,CN1CCOC(CNC(=O)C2(c3cccc(C(F)(F)F)c3)CCCC2)C1 (centres undefined),6.99
13,CC1CCCN(C(=O)c2occc2COc2cccc(C#N)c2)C1 (centres undefined),4.5
14,Cc1cc(CN(Cc2ccccc2)C2CC2)on1,-0.663
15,CCNS(=O)(=O)c1ccc(C)c(C(=O)N(C)Cc2ccccc2C)c1,2.99
16,COCCN(Cc1ccc(F)cc1Cl)C(=O)c1cc[n+]([O-])cc1,17.1
17,CCc1ccsc1C(=O)N1CCCC(c2noc(C)n2)C1 (centres undefined),-2.57
18,Cc1nc(C2CCCN(C(=O)c3cc(C)sc3C)C2)no1 (centres undefined),-2.35
19,CSCCNC(=O)c1cc(Br)cn1C(C)C,-1.74
20,CCNS(=O)(=O)c1ccc(C)c(C(=O)N(CCC#N)Cc2ccco2)c1,19.1
21,CCc1nc(CN2CCCC(N(C)CCn3cccn3)C2)no1 (centres undefined),57.1
22,CCOC(C)C(=O)N1CCN(S(C)(=O)=O)CC1 (centres undefined),-112
23,CC(NC(=O)C1=NN(C)C(=O)CC1)c1ccccc1Cl (centres undefined),-96.4
24,CS(=O)(=O)CCOc1nc(-c2ccccc2Cl)no1,-102

row,Structure (SMILES),cytotoxicity at 70.5 h [%]
1,CC(CN1CCCC1=O)NC(=O)c1ccc(C(F)(F)F)[nH]c1=O (centres undefined),-74.6
2,CCc1ncc2c(n1)CN(Cc1cc(C)on1)CC2,-106
3,CC(CN1CCCC1=O)NC(=O)c1cc(=O)[nH]c2ccc(Cl)cc12 (centres undefined),-85.6
4,Cc1n[nH]c(C2CN(CC(=O)NCCc3ccc(F)cc3)CCO2)n1 (centres undefined),-114
5,O=C(NS(=O)(=O)c1c(Cl)cccc1Cl)c1cccc2c1OCCO2,-103
6,COC(=O)c1ccccc1S(=O)(=O)NC(=O)c1cccc2c1OCCO2,-100
7,CCC(COC)NC(=O)N1CCC(n2ccc(C(F)(F)F)n2)CC1 (centres undefined),-104
8,O=C(NCCCF)N1CCC(n2ccc(C(F)(F)F)n2)CC1,-104
9,COC(C)(C)CNC(=O)N1CCC(n2ccc(C(F)(F)F)n2)CC1,-76.1
10,Cc1cccc(C(=O)N2CCN(S(C)(=O)=O)[C@@H](C)C2)c1Cl,-102
11,CCc1ncc2c(n1)CN(Cc1nnc(C(C)C)o1)CC2,-99.6
12,CCc1ncc2c(n1)CN(Cc1nnc(CC)o1)CC2,-79.4
13,COCCc1noc(CN2CCCC2c2noc(C)n2)n1 (centres undefined),-0.394
14,CN1CCN(CC2CCN(C(=O)CCC3CCCCC3)CC2)CC1,-2.91
15,O=S(=O)(NCC1COc2ccccc2C1)N1CCCCCC1 (centres undefined),-7.48
16,Cc1ccc(C(=O)NC2CCN(Cc3nc(CC(C)C)no3)CC2)s1,1.36
17,CCCc1noc(CN2CCC(NC(=O)c3ccc(C)s3)CC2)n1,-4.33
18,Nc1ncc(C(=O)N2CCN(c3nccs3)CC2)cc1Cl,-4.3
19,CCOC(=O)NCCC(=O)NC(C)(C)c1ccc2c(c1)OCCO2,-6.26
20,COCC(NC(=O)c1ccco1)c1cccc(C(F)(F)F)c1 (centres undefined),-3.48
21,O=C(C(CNCc1cccs1)c1ccccc1)N1CCOCC1 (centres undefined),7.5
22,CCn1nc2c(cc1=O)CN(Cc1nc(C)c3ccccc3n1)CC2,-6.18
23,CC(c1cccnc1)N(C)Cc1ccccn1 (centres undefined),-7.62
24,O=C(C(CNCc1cccnc1)c1ccccc1)N1CCOCC1 (centres undefined),-8.37

row,Structure (SMILES),cytotoxicity at 70.5 h [%]
1,CCC(C)(CCO)NC(=O)c1ccon1 (centres undefined),24.8
2,Cc1cc(NC(=O)c2ccc(F)cc2F)n(C)n1,-10.6
3,Cc1cc(NC(=O)c2ccc(F)cc2Cl)n(C)n1,6.57
4,COc1cc(Cl)c(NCc2c(C)noc2C)cc1OC,-7.06
5,COc1cc(NCc2c(C)noc2C)c(C(=O)N(C)C)cc1OC,-8.14
6,Cc1cc(NC(=O)COC(=O)c2ccc(F)cc2Br)n(C)n1,-12.3
7,Cc1cc(NC(=O)c2ccc(F)cc2Br)n(C)n1,-4.35
8,O=c1[nH]ncc(NCCOc2cccc(Br)c2)c1Cl,-5.68
9,CN(CC(=O)Nc1cc(C(C)(C)C)n[nH]1)S(C)(=O)=O,12
10,Cc1nn(CC(O)CN2CCC(C)CC2)c(=O)c(C#N)c1C (centres undefined),-17
11,CCCn1nnnc1CN1Cc2ccccc2CC1c1nnc(C)o1 (centres undefined),-8.77
12,Cn1c(C(=O)N(CC(N)=O)C2CCCC2)cc(Cl)c1Cl,-10.6
13,C=C(C)CN1CCCC(CNS(C)(=O)=O)C1 (centres undefined),-4.35
14,Cc1ccc(-c2cc(CN3CCc4cncnc4C3)on2)cc1,-10.9
15,CCN(C(=O)COc1nc(Cc2ccc(F)cc2)no1)C1CC1,-5.41
16,CN(CC(F)(F)F)C(=O)COc1nc(Cc2ccc(F)cc2)no1,-7.01
17,Cc1cnn(CCNCC(O)c2ccc(S(C)(=O)=O)cc2)c1 (centres undefined),-11.8
18,Cc1cccc(N2N=C(C(=O)NC(C)CCc3ccco3)CCC2=O)c1 (centres undefined),28.5
19,CC(C)CCN(C(=O)c1cccc(NC(N)=O)c1)C1CC1,-17.2
20,CC(C)COC1CCN(C(=O)c2ccc(C(F)(F)F)[nH]c2=O)CC1,-4.17
21,c1cc(-c2nnc(C3(c4ccc5c(c4)OCO5)CCOCC3)o2)ccn1,-11.2
22,NC(=O)Nc1cccc(C(=O)N(Cc2ccncc2)C2CC2)c1,-10.2
23,O=C(Nc1cc(-c2ccccc2)on1)N1CCN(CCO)CC1,-6.53
24,CC(SCc1cc(Br)cc2cccnc12)C(N)=O (centres undefined),-16

row,Structure (SMILES),cytotoxicity at 70.5 h [%]
1,CC(SCc1ccc(Br)c2cccnc12)C(N)=O (centres undefined),18.2
2,COCCn1ccc2ccc(NC(=O)NCc3noc(C)n3)cc21,2.1
3,CC(C)(C#N)CCCS(=O)(=O)c1nccn1-c1cccc(F)c1,-10.9
4,CC(SCCS(C)(=O)=O)c1nc(Cc2ccc(F)cc2)no1 (centres undefined),-0.925
5,CCC(=O)N(CC)CCc1nccs1,-9.4
6,Cc1ccc(C(=O)N(C)C)cc1NC(=O)COCC1CC1,-6.84
7,CCN(CCc1nccs1)C(=O)c1sccc1C,-9.19
8,COc1ccc(C(=O)NCCCNc2ncccn2)cc1F,3.94
9,OC(COCc1ccccc1)CSc1nnc2ccccn12 (centres undefined),-5.06
10,CCCc1noc(CCC(=O)Nc2cc(C(F)(F)F)c[nH]c2=O)n1,-6.41
11,O=C(c1nc(=O)[nH][nH]1)N1CCCN(CC2CCCCC2)CC1,-7.64
12,CNC(=O)c1ccc(NC(=O)NC(C)c2cc(C)oc2C)cc1 (centres undefined),-8.2
13,CN(C)CCN(Cc1ccccc1)C(=O)C1=NNC(=O)CC1,-6.1
14,CN(Cc1cccs1)C(=O)c1ccc(=O)n(C)c1,-5.37
15,CCOc1ccc(C(=O)NCCCNc2ncccn2)cc1,17.7
16,NC(=O)C1=NC2=NS(=O)(=O)c3ccccc3N2N1Cc1ccccc1Cl,-7.31
17,Cn1c(N)nnc1SCc1cc(Br)ccc1Cl,-10.9
18,Cn1cc(S(=O)(=O)Nc2c(F)cccc2N2CCCC2)cn1,-4.97
19,COCCNc1ccccc1CNC(=O)C1CCCOC1 (centres undefined),-2.32
20,CCOc1ccc(NC2CCN(C3CC3)C2=O)cn1 (centres undefined),-1.16
21,Cc1cc(S(=O)(=O)Nc2onc(C)c2C)sc1C,-5.02
22,CC(C)(C)Cc1nnc(NCc2cccc(C#N)c2)o1,-1.69
23,CN(Cc1ncnn1C)C(=O)Nc1ccc(OC(F)F)cc1,-8.26
24,Cc1ncc2c(n1)CN(CCOCC(F)(F)F)CC2,-4.14

row,Structure (SMILES),cytotoxicity at 70.5 h [%]
1,FC(F)(F)COCCN1CCc2cncnc2C1,-2.38
2,CCc1nc(C2CCCN2C(=O)c2ccc(=O)n(CC)n2)no1 (centres undefined),4.08
3,CCn1nc(C(=O)N2CCCC2c2noc(C)n2)ccc1=O (centres undefined),-3.84
4,CCN(CC)c1ccc(NC(=O)NCC2CCOC2)cn1 (centres undefined),-12.2
5,CC(C)(CNc1cn[nH]c(=O)c1Cl)c1ccc2c(c1)OCCO2,-13.9
6,Cc1noc(C2CCN(C(C)c3nc(C4CC4)no3)CC2)n1 (centres undefined),-16.9
7,CCc1ccc(CCC(=O)NCc2nnc[nH]2)cc1,-19.3
8,CC(c1nc(C(C)(C)C)no1)N1CCC(N2CCCC2)CC1 (centres undefined),4.89
9,O=C(C1CSc2ccccc2O1)N1CCN(CCO)CC1 (centres undefined),-14.3
10,CNC(=O)CN(C)c1cncc(OCC(C)C)n1,-5.85
11,CCC(NC(=O)c1cccc2[nH]ccc12)C(=O)N1CCOCC1 (centres undefined),-6.49
12,O=C(CCc1ccc(Br)cc1)NCc1nnc[nH]1,-9.74
13,CCn1c(CN(C)C(C)CSC)nc2c(F)cccc21 (centres undefined),-3.45
14,CN(C)Cc1nc(C(C)(C)NC(=O)c2ccnn2C)no1,8.69
15,Cc1ccc(C)c(OCC(O)CN(C)CC(=O)Nc2cc(C)on2)c1 (centres undefined),3.48
16,Cc1ccc(OCCC(=O)N(C)CC(=O)Nc2cc(C)on2)c(C)c1,-4.37
17,COc1ccc2nc(C)c(C(=O)NCCN3CCS(=O)(=O)CC3)cc2c1,-1.47
18,Cn1nccc1C(=O)NC(C)(C)c1noc(C(C)(C)C)n1,-16.4
19,CCN1CCN(CCCNC(=O)c2cc3ccc(C)cc3nc2C)CC1,-2.81
20,CNC(=O)C(CCSC)NC(=O)c1ccc2ccccc2n1 (centres undefined),-11
21,COCC(O)CN(C)C(=O)NC1CCN(S(C)(=O)=O)CC1 (centres undefined),-7.83
22,CCOc1cc(CN(C)CC(=O)O)ccc1OC(F)F,6.63
23,Cc1sc(Br)cc1S(=O)(=O)NCCCN,-8.71
